According to ChEMBL document CHEMBL4334464, “From Phenylthiazoles to Phenylpyrazoles: Broadening the Antibacterial Spectrum toward Carbapenem-Resistant Bacteria” (J Med Chem, 2019):
In brackets after ≈: the same amount, converted by molar mass. Activity calls are given as the source filed them. The calls are words filed in the database; no cut-off is given here.

Columns and labels:
Acinetobacter baumannii [1] = test: Ratio of MBC to MIC for Acinetobacter baumannii ATCC BAA 1747 clinical isolates; assay type: functional
Escherichia coli [2] = test: Ratio of MBC to MIC for Escherichia coli ATCC 25922 clinical isolates; assay type: functional
Enterococcus faecalis = test: Ratio of MBC to MIC for vancomycin-resistant Enterococcus faecalis ATCC 51299 clinical isolates; assay type: functional
Staphylococcus aureus [3] = test: Antibacterial activity against methicillin-resistant Staphylococcus aureus NRS384-USA300 clinical isolates after 18 to 20 hrs in aerobic condition by CLSI protocol based broth microdilution assay; assay type: functional
Acinetobacter baumannii [4] = test: Ratio of MBC to MIC for Acinetobacter baumannii NR 17786 clinical isolates; assay type: functional
Pseudomonas aeruginosa [5] = test: microbe, parasite or virus in culture; settings: ATCC 25619
Description: Antibacterial activity against Pseudomonas aeruginosa ATCC 25619 clinical isolates after 18 to 20 hrs in aerobic condition by CLSI-based broth microdilution assay

Escherichia coli [6] = test: Antibacterial activity against Escherichia coli ATCC 25922 clinical isolates after 18 to 20 hrs in aerobic condition by CLSI-based broth microdilution assay; assay type: functional
Salmonella enterica [7] = test: Antibacterial activity against Salmonella enterica NR-170 clinical isolates after 18 to 20 hrs in aerobic condition by CLSI-based broth microdilution assay; assay type: functional
Escherichia coli [8] = test: Antibacterial activity against Escherichia coli ATCC 35150 clinical isolates after 18 to 20 hrs in aerobic condition by CLSI-based broth microdilution assay; assay type: functional
Acinetobacter baumannii [9] = test: Ratio of MBC to MIC for Acinetobacter baumannii ATCC 19606 clinical isolates; assay type: functional, ATCC 19606 = CIP 70.34 = JCM 6841
Pseudomonas aeruginosa [10] = test: Ratio of MBC to MIC for Pseudomonas aeruginosa ATCC 25619 clinical isolates; assay type: functional
Acinetobacter baumannii [11] = test: Antibacterial activity against Acinetobacter baumannii NR 17785 clinical isolates after 18 to 20 hrs in aerobic condition by CLSI-based broth microdilution assay; assay type: functional
Listeria monocytogenes = test: Ratio of MBC to MIC for Listeria monocytogenes ATCC 19111 clinical isolates; assay type: functional
[12] = Antibacterial activity against Enterobacter cloacae subsp. cloacae ATCC BAA-1143 clinical isolates after 18 to 20 hrs in aerobic condition by CLSI-based broth microdilution assay; assay type: functional
Salmonella typhimurium = test: Antibacterial activity against Salmonella typhimurium ATCC 700720 after 18 to 20 hrs in aerobic condition by CLSI-based broth microdilution assay; assay type: functional, Salmonella enterica subsp. enterica serovar Typhimurium; settings: Salmonella enterica
Pseudomonas aeruginosa [13] = test: Ratio of MBC to MIC for Pseudomonas aeruginosa ATCC 9027 clinical isolates; assay type: functional
Staphylococcus aureus [14] = test: Ratio of MBC to MIC for Methicillin-sensitive Staphylococcus aureus ATCC 6538 clinical isolates; assay type: functional
Escherichia coli [15] = test: Ratio of MBC to MIC for Escherichia coli ATCC 1411 clinical isolates; assay type: functional
Shigella flexneri [16] = test: Ratio of MBC to MIC for Shigella flexneri ATCC 9199 clinical isolates; assay type: functional
Escherichia coli [17] = test: Ratio of MBC to MIC for Escherichia coli ATCC 35150 clinical isolates; assay type: functional
Staphylococcus aureus [18] = test: Antibacterial activity against Methicillin-resistant Staphylococcus aureus NRS385-USA500 clinical isolates after 18 to 20 hrs in aerobic condition by CLSI protocol based broth microdilution assay; assay type: functional
Salmonella enterica [19] = test: Ratio of MBC to MIC for Salmonella enterica NR-170 clinical isolates; assay type: functional
Staphylococcus aureus [20] = test: Antibacterial activity against Methicillin-sensitive Staphylococcus aureus NRS107 clinical isolates after 18 to 20 hrs in aerobic condition by CLSI protocol based broth microdilution assay; assay type: functional
Staphylococcus aureus [21] = test: Antibacterial activity against vancomycin-resistant Staphylococcus aureus isolate 10 after 18 to 20 hrs in aerobic condition by CLSI-based broth microdilution assay; assay type: functional
Staphylococcus aureus [22] = test: Ratio of MBC to MIC for Methicillin-sensitive Staphylococcus aureus NRS107 clinical isolates; assay type: functional
Shigella flexneri [23] = test: Antibacterial activity against Shigella flexneri ATCC 9199 clinical isolates after 18 to 20 hrs in aerobic condition by CLSI-based broth microdilution assay; assay type: functional
Salmonella enteritidis [24] = test: Antibacterial activity against Salmonella enteritidis ATCC 14028 clinical isolates after 18 to 20 hrs in aerobic condition by CLSI-based broth microdilution assay; assay type: functional, Salmonella enterica subsp. enterica serovar Enteritidis; settings: Salmonella enterica
Staphylococcus aureus [25] = test: Antibacterial activity against linezolid-resistant/Methicillin-resistant Staphylococcus aureus NRS119 clinical isolates after 18 to 20 hrs in aerobic condition by CLSI protocol based broth microdilution assay; assay type: functional
Escherichia coli [26] = test: Inhibition of 6His tagged Escherichia coli UPPP expressed in Escherichia coli C41(DE3) cells preincubated for 15 mins followed by FPP substrate addition and measured after 20 mins by malachite green reagent based assay
Pseudomonas aeruginosa [27] = test: Ratio of MBC to MIC for Pseudomonas aeruginosa ATCC 15442 clinical isolates; assay type: functional
Staphylococcus aureus [28] = test: Antibacterial activity against Methicillin-resistant Staphylococcus aureus NRS123-USA400 clinical isolates after 18 to 20 hrs in aerobic condition by CLSI protocol based broth microdilution assay; assay type: functional
Acinetobacter baumannii [29] = test: microbe, parasite or virus in culture; settings: ATCC BAA 1747
Description: Antibacterial activity against Acinetobacter baumannii ATCC BAA 1747 after 18 to 20 hrs in aerobic condition by CLSI-based broth microdilution assay

Klebsiella pneumoniae = test: Ratio of MBC to MIC for Klebsiella pneumoniae BAA-1706 after 18 to 20 hrs in aerobic condition by CLSI-based broth microdilution assay; assay type: functional
Acinetobacter baumannii [30] = test: Ratio of MBC to MIC for Acinetobacter baumannii ATCC BAA 1141 clinical isolates; assay type: functional
Staphylococcus aureus [31] = test: Antibacterial activity against vancomycin-resistant Staphylococcus aureus isolate 12 after 18 to 20 hrs in aerobic condition by CLSI-based broth microdilution assay; assay type: functional
Acinetobacter baumannii [32] = test: Ratio of MBC to MIC for Acinetobacter baumannii NR 17785 clinical isolates; assay type: functional
Salmonella enteritidis [33] = test: Ratio of MBC to MIC for Salmonella enteritidis ATCC 14028 clinical isolates; assay type: functional, Salmonella enterica subsp. enterica serovar Enteritidis
Staphylococcus aureus [34] = test: Antibacterial activity against Methicillin-resistant Staphylococcus aureus USA700-NRS386 clinical isolates after 18 to 20 hrs in aerobic condition by CLSI protocol based broth microdilution assay; assay type: functional
Escherichia coli [35] = test: Ratio of MBC to MIC for Escherichia coli BW25113 clinical isolates; assay type: functional
Escherichia coli [36] = test: Antibacterial activity against Escherichia coli BW25113 clinical isolates after 18 to 20 hrs in aerobic condition by CLSI-based broth microdilution assay; assay type: functional
Escherichia coli [37] = test: Antimicrobial activity against Escherichia coli JW55031 harboring deltatolC mutant after 18 to 20 hrs in aerobic condition by CLSI protocol based broth microdilution assay; assay type: functional
Streptococcus pneumoniae = test: Antibacterial activity against methicillin-resistant Streptococcus pneumoniae ATCC 700677 clinical isolates after 18 to 20 hrs by CLSI-based broth microdilution assay; assay type: functional
Pseudomonas aeruginosa [38] = test: Antibacterial activity against Pseudomonas aeruginosa ATCC 15442 clinical isolates after 18 to 20 hrs in aerobic condition by CLSI-based broth microdilution assay; assay type: functional
Staphylococcus aureus [39] = test: Bactericidal activity against methicillin-resistant Staphylococcus aureus NRS123-USA400 clinical isolates at 5 times MIC incubated over 24 hrs followed by replating on tryptic soy agar plate and further incubated for 18 to 20 hrs by time kill assay; assay type: functional, organism-based
Acinetobacter baumannii [40] = test: Antibacterial activity against carbapenem-resistant Acinetobacter baumannii ATCC BAA 1605 clinical isolates after 18 to 20 hrs in aerobic condition by CLSI-based broth microdilution assay; assay type: functional

For `CCCCCC#Cc1ccc(-n2ncc(/C(C)=N/NC3=NCCN3)c2C)cc1`, the Ratio (Acinetobacter baumannii [1]) was “>=1”, the Ratio (Escherichia coli [2]) was “>=1” and the Ratio (Enterococcus faecalis) was less than 3. The MIC (Staphylococcus aureus [3]) was 2 µg/mL (≈ 5.31 µM), the Ratio (Acinetobacter baumannii [4]) was “>=1” and the MIC (Pseudomonas aeruginosa [5]) was greater than 128 µg/mL. For the same molecule, the MIC (Escherichia coli [6]) was greater than 128 µg/mL, the MIC (Salmonella enterica [7]) was greater than 128 µg/mL and the MIC (Escherichia coli [8]) was greater than 128 µg/mL. The Ratio (Acinetobacter baumannii [9]) was “>=1”, the Ratio (Pseudomonas aeruginosa [10]) was “>=1” and the MIC (Acinetobacter baumannii [11]) was greater than 128 µg/mL. It also gave a Ratio (Listeria monocytogenes) of less than 3, an MIC [12] greater than 128 µg/mL and an MIC (Salmonella typhimurium) greater than 128 µg/mL. The Ratio (Pseudomonas aeruginosa [13]) was “>=1”, the Ratio (Staphylococcus aureus [14]) was “<=2” and the Ratio (Escherichia coli [15]) was “>=1”. For the same molecule, the Ratio (Shigella flexneri [16]) was “>=1”, the Ratio (Escherichia coli [17]) was “>=1” and the MIC (Staphylococcus aureus [18]) was 2 µg/mL (≈ 5.31 µM). For the same molecule, the Ratio (Salmonella enterica [19]) was “>=1”, the MIC (Staphylococcus aureus [20]) was 4 µg/mL (≈ 10.6 µM) and the MIC (Staphylococcus aureus [21]) was 2 µg/mL (≈ 5.31 µM). For the same molecule, the Ratio (Staphylococcus aureus [22]) was “<=2”, the MIC (Shigella flexneri [23]) was greater than 128 µg/mL and the MIC (Salmonella enteritidis [24]) was greater than 128 µg/mL. The MIC (Staphylococcus aureus [25]) was 2 µg/mL (≈ 5.31 µM), the inhibition (Escherichia coli [26]) was “inactive” and the Ratio (Pseudomonas aeruginosa [27]) was “>=1”. The MIC (Staphylococcus aureus [28]) was 4 µg/mL (≈ 10.6 µM), the MIC (Acinetobacter baumannii [29]) was greater than 128 µg/mL and the Ratio (Klebsiella pneumoniae) was “>=1”. For the same molecule, the Ratio (Acinetobacter baumannii [30]) was “>=1”, the MIC (Staphylococcus aureus [31]) was 2 µg/mL (≈ 5.31 µM) and the Ratio (Acinetobacter baumannii [32]) was “>=1”. For the same molecule, the Ratio (Salmonella enteritidis [33]) was “>=1”, the MIC (Staphylococcus aureus [34]) was 2 µg/mL (≈ 5.31 µM) and the Ratio (Escherichia coli [35]) was “>=1”. For the same molecule, the MIC (Escherichia coli [36]) was greater than 128 µg/mL, the MIC (Escherichia coli [37]) was 2 µg/mL (≈ 5.31 µM) and the MIC (Streptococcus pneumoniae) was 2 µg/mL (≈ 5.31 µM). For the same molecule, the MIC (Pseudomonas aeruginosa [38]) was greater than 128 µg/mL and the Activity (Staphylococcus aureus [39]) was “Active”.

For `C/C(=N\NC(=N)N)c1cnn(-c2ccc(C#CC3(O)CCCCC3)cc2)c1C`, the Ratio (Acinetobacter baumannii [1]) was “>=1”, the Ratio (Escherichia coli [2]) was “>=1” and the Ratio (Enterococcus faecalis) was less than 3. For the same molecule, the MIC (Staphylococcus aureus [3]) was 2 µg/mL (≈ 5.28 µM), the Ratio (Acinetobacter baumannii [4]) was “>=1” and the MIC (Pseudomonas aeruginosa [5]) was 32 µg/mL (≈ 84.5 µM). For the same molecule, the MIC (Acinetobacter baumannii [40]) was 32 µg/mL (≈ 84.5 µM), the MIC (Escherichia coli [6]) was 8 µg/mL (≈ 21.1 µM) and the MIC (Salmonella enterica [7]) was 16 µg/mL (≈ 42.3 µM). For the same molecule, the MIC (Escherichia coli [8]) was 16 µg/mL (≈ 42.3 µM), the Ratio (Acinetobacter baumannii [9]) was “>=1” and the Ratio (Pseudomonas aeruginosa [10]) was “>=1”. It also gave an MIC (Acinetobacter baumannii [11]) of 8 µg/mL (≈ 21.1 µM), a Ratio (Listeria monocytogenes) of less than 3 and an MIC [12] of 16 µg/mL (≈ 42.3 µM). The MIC (Salmonella typhimurium) was 64 µg/mL (≈ 169 µM), the Ratio (Pseudomonas aeruginosa [13]) was “>=1” and the Ratio (Staphylococcus aureus [14]) was “<=2”. For the same molecule, the Ratio (Escherichia coli [15]) was “>=1”, the Ratio (Shigella flexneri [16]) was “>=1” and the Ratio (Escherichia coli [17]) was “>=1”. For the same molecule, the MIC (Staphylococcus aureus [18]) was 2 µg/mL (≈ 5.28 µM), the Ratio (Salmonella enterica [19]) was “>=1” and the MIC (Staphylococcus aureus [20]) was 4 µg/mL (≈ 10.6 µM). For the same molecule, the MIC (Staphylococcus aureus [21]) was 2 µg/mL (≈ 5.28 µM), the Ratio (Staphylococcus aureus [22]) was “<=2” and the MIC (Shigella flexneri [23]) was 16 µg/mL (≈ 42.3 µM). For the same molecule, the MIC (Salmonella enteritidis [24]) was 32 µg/mL (≈ 84.5 µM), the MIC (Staphylococcus aureus [25]) was 2 µg/mL (≈ 5.28 µM) and the Ratio (Pseudomonas aeruginosa [27]) was “>=1”. For the same molecule, the MIC (Staphylococcus aureus [28]) was 2 µg/mL (≈ 5.28 µM), the MIC (Acinetobacter baumannii [29]) was 16 µg/mL (≈ 42.3 µM) and the Ratio (Klebsiella pneumoniae) was “>=1”. The Ratio (Acinetobacter baumannii [30]) was “>=1”, the MIC (Staphylococcus aureus [31]) was 2 µg/mL (≈ 5.28 µM) and the Ratio (Acinetobacter baumannii [32]) was “>=1”. For the same molecule, the Ratio (Salmonella enteritidis [33]) was “>=1”, the MIC (Staphylococcus aureus [34]) was 2 µg/mL (≈ 5.28 µM) and the Ratio (Escherichia coli [35]) was “>=1”. It also gave an MIC (Escherichia coli [36]) of 8 µg/mL (≈ 21.1 µM), an MIC (Escherichia coli [37]) of 4 µg/mL (≈ 10.6 µM) and an MIC (Streptococcus pneumoniae) of 2 µg/mL (≈ 5.28 µM). The MIC (Pseudomonas aeruginosa [38]) was 64 µg/mL (≈ 169 µM) and the Activity (Staphylococcus aureus [39]) was “Active”.
